The values below come from PMC9525653, “Mutations conferring SO4^2− pumping ability on the cyanobacterial anion pump rhodopsin and the resultant unique features of the mutant” (Scientific Reports, 2022).

Test [1] has as its target MrHR (Mastigocladopsis repens, UniProt A0A6P3CW41, E182T). The test is described as follows: biochemical.
In test [2] the target is MrHR (Mastigocladopsis repens, UniProt A0A6P3CW41). The test is described as follows: biochemical.
Sequence of MrHR (Mastigocladopsis repens, UniProt A0A6P3CW41) (A0A6P3CW41 1-232): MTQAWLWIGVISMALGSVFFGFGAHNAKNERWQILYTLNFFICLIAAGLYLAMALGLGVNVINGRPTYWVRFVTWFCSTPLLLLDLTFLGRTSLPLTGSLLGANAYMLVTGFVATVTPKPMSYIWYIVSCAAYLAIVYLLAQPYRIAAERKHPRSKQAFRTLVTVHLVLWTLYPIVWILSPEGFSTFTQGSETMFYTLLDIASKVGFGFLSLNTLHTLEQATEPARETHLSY

Sequence of MrHR (Mastigocladopsis repens, UniProt A0A6P3CW41, E182T) (A0A6P3CW41 1-232 E182T): as the sequence (A0A6P3CW41 1-232) above, with E182T counted along it

Usually Kd stands for the constant that tells how readily two partners part at equilibrium. High values mean lower affinity, low ones higher affinity. As for `Cl` [Cl^−], the results for the Kd on MrHR [1] and on MrHR [2] were 1.18 mM and 4.98 mM, respectively.
